Laboratory results taken from patent US10822348B2, “Inhibitors of Bruton's tyrosine kinase and methods of their use” (JANSSEN PHARMACEUTICA NV, priority 2015, dated 2020).

target: unphosphorylated-BTK kinase domain (UP-BTK), GST-tagged human BTK (389-659aa) (Homo sapiens (Human), UniProt Q06187); test: BTK kinase Lanthascreen binding assay; conditions: negative log of the IC50 in molar; 60 minutes incubation, 50 nM Tracer 236
Experimental: BTK Kinase Lanthascreen Binding Assay:
A BTK kinase lanthascreen binding assay monitors compound binding to unphosphorylated-BTK kinase domain (UP-BTK), by competing with a fluorescent labeled tracer. […] Data were analyzed using Xlfit™ version 5.3 from ID Business Solutions (Guildford), Microsoft Excel add-in. pIC50 refers to the negative log of the IC50 in molar.

Chain of unphosphorylated-BTK kinase domain (UP-BTK), GST-tagged human BTK (389-659aa) (Q06187 389-659): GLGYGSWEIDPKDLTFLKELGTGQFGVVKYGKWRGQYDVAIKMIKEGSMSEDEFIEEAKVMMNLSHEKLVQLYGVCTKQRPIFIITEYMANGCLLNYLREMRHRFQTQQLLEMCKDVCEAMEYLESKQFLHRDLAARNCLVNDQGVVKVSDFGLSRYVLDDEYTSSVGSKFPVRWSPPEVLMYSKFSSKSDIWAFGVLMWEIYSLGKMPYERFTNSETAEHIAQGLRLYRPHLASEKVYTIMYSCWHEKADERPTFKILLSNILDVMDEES

Compound	BTK_I_binding pIC50
C=CC(=O)N1CCC[C@@H](NC(=O)c2sc3nccc4c3c2NC(=O)N4c2ccc(Oc3ccccc3)cc2C)C1 (single isomer, unassigned) [Example 9, (R)—N-(1-Acryloylpiperidin-3-yl)-5-(*S)-(2-methyl-4-phenoxyphenyl)-4-oxo-4,5-dihydro-3H-1-thia-3,5,8-triazaacenaphthylene-2-carboxamide]	8.1
CNC/C=C/C(=O)N1CCC[C@@H](NC(=O)c2sc3nccc4c3c2NC(=O)N4c2ccc(Oc3ccccc3)cc2C)C1 (single isomer, unassigned) [Example 23, (R,E)-5-(*S)-(2-Methyl-4-phenoxyphenyl)-N-(1-(4-(methylamino)but-2-enoyl)piperidin-3-yl)-4-oxo-4,5-dihydro-3H-1-thia-3,5,8-triazaacenaphthylene-2-carboxamide]	7.5
CNC/C=C/C(=O)N1CCC[C@@H](NC(=O)c2sc3nccc4c3c2NC(=O)N4c2ccc(Oc3ccccc3)cc2C)C1 (single isomer, unassigned) [Example 38, (R,E)-5-(*S)-(2-Methyl-4-phenoxyphenyl)-N-(1-(4-(methylamino)but-2-enoyl)piperidin-3-yl)-4-oxo-4,5-dihydro-3H-1-thia-3,5,8-triazaacenaphthylene-2-carboxamide]	7.3
C=CC(=O)N1CCC[C@H](NC(=O)c2sc3nccc4c3c2NC(=O)N4c2ccc(Oc3ccccc3)cc2C)C1 (single isomer, unassigned) [Example 44, (S)—N-(1-Acryloylpiperidin-3-yl)-5-(*S)-(2-methyl-4-phenoxyphenyl)-4-oxo-4,5-dihydro-3H-1-thia-3,5,8-triazaacenaphthylene-2-carboxamide]	7.4
Cc1cc(Oc2ccccc2)ccc1N1C(=O)Nc2c(C(=O)N[C@@H]3CCCN(C(=O)CN(C)C)C3)sc3nccc1c23 (single isomer, unassigned) [Example 56, (R)—N-(1-(2-(Dimethylamino)acetyl)piperidin-3-yl)-5-(*S)-(2-methyl-4-phenoxyphenyl)-4-oxo-4,5-dihydro-3H-1-thia-3,5,8-triazaacenaphthylene-2-carboxamide]	7.4
C=CC(=O)N1CCC[C@H](NC(=O)c2sc3nccc4c3c2NC(=O)N4c2ccc(Oc3ccccc3)cc2C)C1 (single isomer, unassigned) [Example 82, (S)—N-(1-acryloylpiperidin-3-yl)-5-(*S)-(2-methyl-4-phenoxyphenyl)-4-oxo-4,5-dihydro-3H-1-thia-3,5,8-triazaacenaphthylene-2-carboxamide]	7.2
C=CC(=O)N1CCC[C@@H](NC(=O)c2sc3nccc4c3c2NC(=O)N4c2ccc(Oc3ccccc3)cc2C)C1 (single isomer, unassigned) [Example 87, (R)—N-(1-Acryloylpiperidin-3-yl)-5-(*R)-(2-methyl-4-phenoxyphenyl)-4-oxo-4,5-dihydro-3H-1-thia-3,5,8-triazaacenaphthylene-2-carboxamide]	6.9
Cc1cc(Oc2ccccc2)ccc1N1C(=O)Nc2c(C(=O)N[C@H]3CCCOC3)sc3nccc1c23 (single isomer, unassigned) [Example 88, (S)-5-(*S)-(2-Methyl-4-phenoxyphenyl)-4-oxo-N-(tetrahydro-2H-pyran-3-yl)-4,5-dihydro-3H-1-thia-3,5,8-triazaacenaphthylene-2-carboxamide]	7.6
Cc1cc(Oc2ccccc2)ccc1N1C(=O)Nc2c(C(=O)N[C@@H]3CCCOC3)sc3nccc1c23 (single isomer, unassigned) [Example 96, (R)-5-(*S)-(2-Methyl-4-phenoxyphenyl)-4-oxo-N-(tetrahydro-2H-pyran-3-yl)-4,5-dihydro-3H-1-thia-3,5,8-triazaacenaphthylene-2-carboxamide]	7.8
Cc1cc(Oc2ccccc2)ccc1N1C(=O)Nc2c(C(=O)N[C@@H]3CCCN(C(=O)/C(C#N)=C/C(C)(C)N4CCOCC4)C3)sc3nccc1c23 (single isomer, unassigned) [Example 112, (R,E)-N-(1-(2-Cyano-4-methyl-4-morpholinopent-2-enoyl)piperidin-3-yl)-5-(*R)-(2-methyl-4-phenoxyphenyl)-4-oxo-4,5-dihydro-3H-1-thia-3,5,8-triazaacenaphthylene-2-carboxamide]	6.9
Cc1cc(Oc2ccccc2)ccc1N1C(=O)Nc2c(C(=O)N[C@@H]3CCCN(C)C3)sc3nccc1c23 (single isomer, unassigned) [Example 127, (R)-5-(*S)-(2-Methyl-4-phenoxyphenyl)-N-(1-methylpiperidin-3-yl)-4-oxo-4,5-dihydro-3H-1-thia-3,5,8-triazaacenaphthylene-2-carboxamide]	7.3
Cc1cc(Oc2ccccc2)ccc1N1C(=O)Nc2c(C(=O)N[C@@H]3CCN(C)C3)sc3nccc1c23 (single isomer, unassigned) [Example 147, (R)-5-(*S)-(2-Methyl-4-phenoxyphenyl)-N-(1-methylpyrrolidin-3-yl)-4-oxo-4,5-dihydro-3H-1-thia-3,5,8-triazaacenaphthylene-2-carboxamide]	7.4
C=CC(=O)N1CC[C@@H](NC(=O)c2sc3nccc4c3c2NC(=O)N4c2ccc(Oc3ccccc3)cc2C)C1 (single isomer, unassigned) [Example 169, (R)—N-(1-Acryloylpyrrolidin-3-yl)-5-(*R)-(2-methyl-4-phenoxyphenyl)-4-oxo-4,5-dihydro-3H-1-thia-3,5,8-triazaacenaphthylene-2-carboxamide]	6.4
Cc1cc(Oc2ccccc2)ccc1N1C(=O)Nc2c(C(=O)N[C@@H]3CCCN(C)C3)sc3nccc1c23 (single isomer, unassigned) [Example 180, (R)-5-(*R)-(2-Methyl-4-phenoxyphenyl)-N-(1-methylpiperidin-3-yl)-4-oxo-4,5-dihydro-3H-1-thia-3,5,8-triazaacenaphthylene-2-carboxamide]	6.0
N#C/C(=C\C1CC1)C(=O)N1CCC[C@@H](NC(=O)c2sc3nccc4c3c2NC(=O)N4c2c(Cl)ccc3c2OCO3)C1 (single isomer, unassigned) [Example 239]	7.4

same assay, conditions: read-out: BTK_I_binding pIC50 (converted)

Compound	IC50 [nM]
C=CC(=O)N1C[C@@H](O)C[C@@H](NC(=O)c2sc3nccc4c3c2NC(=O)N4c2ccc(Oc3ccccc3)cc2C)C1 (single isomer, unassigned) [Example 2, N-((3R,5S)-1-Acryloyl-5-hydroxypiperidin-3-yl)-5-(*S)-(2-methyl-4-phenoxyphenyl)-4-oxo-4,5-dihydro-3H-1-thia-3,5,8-triazaacenaphthylene-2-carboxamide]	6.31

same assay, conditions: unphosphorylated-BTK kinase domain; 60 minutes incubation; pIC50 = negative log of the IC50 in molar

Compound	BTK_I_binding pIC50
C=CC(=O)N1C[C@H](NC(=O)c2sc3nccc4c3c2NC(=O)N4c2ccc(Oc3ccccc3)cc2C)C[C@@H](OC)C1 (relative stereo) [Example 481, N-((3R,5R)-1-Acryloyl-5-methoxypiperidin-3-yl)-5-(*S)-(2-methyl-4-phenoxyphenyl)-4-oxo-4,5-dihydro-3H-1-thia-3,5,8-triazaacenaphthylene-2-carboxamide]	8.2
C=CC(=O)N1C[C@H](NC(=O)c2sc3nccc4c3c2NC(=O)N4c2ccc(Oc3ccccc3)cc2C)C[C@H](OC)C1 (relative stereo) [Example 482, N-((3R,5S)-1-Acryloyl-5-methoxypiperidin-3-yl)-5-(*S)-(2-methyl-4-phenoxyphenyl)-4-oxo-4,5-dihydro-3H-1-thia-3,5,8-triazaacenaphthylene-2-carboxamide]	8.0
C=CC(=O)N1C[C@H](O)C[C@@H](NC(=O)c2sc3nccc4c3c2NC(=O)N4c2ccc(Oc3ccccc3)cc2C)C1 (relative stereo) [Example 483, N-((3R,5R)-1-Acryloyl-5-hydroxypiperidin-3-yl)-5-(*S)-(2-methyl-4-phenoxyphenyl)-4-oxo-4,5-dihydro-3H-1-thia-3,5,8-triazaacenaphthylene-2-carboxamide]	8.4
C=CC(=O)N1C[C@@H](F)C[C@@H](NC(=O)c2sc3nccc4c3c2NC(=O)N4c2ccc(Oc3ccccc3)cc2C)C1 (relative stereo) [Example 484, N-((3R,5S)-1-Acryloyl-5-fluoropiperidin-3-yl)-5-(*S)-(2-methyl-4-phenoxyphenyl)-4-oxo-4,5-dihydro-3H-1-thia-3,5,8-triazaacenaphthylene-2-carboxamide]	8.0
C=CC(=O)N1C[C@H](NC(=O)c2sc3nccc4c3c2NC(=O)N4c2ccc(Oc3ccccc3)cc2C)[C@@H](F)C1 (relative stereo) [Example 486, N-((3S,4S)-1-Acryloyl-4-fluoropyrrolidin-3-yl)-5-(*S)-(2-methyl-4-phenoxyphenyl)-4-oxo-4,5-dihydro-3H-1-thia-3,5,8-triazaacenaphthylene-2-carboxamide]	7.8
C=CC(=O)N1C[C@H](NC(=O)c2sc3nccc4c3c2NC(=O)N4c2ccc(Oc3ccccc3)cc2C)[C@@H](OC)C1 (relative stereo) [Example 490, N-((3S,4S)-1-Acryloyl-4-methoxypyrrolidin-3-yl)-5-(*S)-(2-methyl-4-phenoxyphenyl)-4-oxo-4,5-dihydro-3H-1-thia-3,5,8-triazaacenaphthylene-2-carboxamide]	7.7
C=CC(=O)N1C[C@H](NC(=O)c2sc3nccc4c3c2NC(=O)N4c2ccc(Oc3ccccc3)cc2C)[C@H](OC)C1 (relative stereo) [Example 508, N-((3S,4R)-1-Acryloyl-4-methoxypyrrolidin-3-yl)-5-(*S)-(2-methyl-4-phenoxyphenyl)-4-oxo-4,5-dihydro-3H-1-thia-3,5,8-triazaacenaphthylene-2-carboxamide]	7.7
